Several values for one entry are separate records, joined by “and”; a condition that tells them apart may be missing. Equal values may be shown once.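 Five concentrations, 48 hours, 96-well plates. GI50 is the concentration that inhibits growth by half.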 Activity calls are given as the source filed them. Cut-off read from the data, not from the text of the source: active = GI50 up to about 1.1 µM and inactive = higher.
What was measured:
Test in all cases: NCI anticancer screen, dose series, 48 h
[1] = tested on: NCI-H23
[2] = tested on: HOP-62
[3] = tested on: ACHN
[4] = tested on: U-251
[5] = tested on: IGROV-1
[6] = tested on: HCT-116
[7] = tested on: K562
[8] = tested on: RXF 393
[9] = tested on: CCRF-CEM
[10] = tested on: SR
[11] = tested on: HL-60
[12] = tested on: M14
[13] = tested on: Malme-3M
[14] = tested on: SK-MEL-28
[15] = tested on: SNB-75
[16] = tested on: A498
[17] = tested on: OVCAR-5
[18] = tested on: COLO 205
[19] = tested on: SF-539
[20] = tested on: SF-295

Measured: GI50

Oc1ccc2ccccc2c1/N=N/c1ccccc1
inactive: [1] > 100 µM | [2] 33.5 µM and > 60 µM | [3] 61 µM and 60.7 µM | [4] 51.9 µM and > 56 µM | [5] > 69.2 µM | [6] > 100 µM | [7] > 100 µM and 91 µM | [8] > 100 µM | [9] > 100 µM | [10] > 100 µM | [11] > 100 µM and 73.1 µM | [12] > 100 µM | [13] > 100 µM | [14] > 100 µM | [15] > 100 µM | [16] > 100 µM | [17] > 100 µM | [18] > 100 µM | [19] > 100 µM

CCN1CCC(O)(C(C(=O)O)c2ccccc2)CC1 (stereo unspecified)
inactive: [20] > 100 µM | [1] > 100 µM | [2] > 100 µM | [3] > 100 µM | [4] > 100 µM | [5] > 100 µM | [7] > 100 µM | [8] > 100 µM | [9] > 100 µM | [10] > 100 µM | [11] > 100 µM | [12] > 100 µM | [13] > 100 µM | [14] > 100 µM | [15] > 100 µM | [16] > 100 µM | [17] > 100 µM | [18] > 100 µM

COCCCNc1nc(N)c(C#N)c(C#N)c1C#N
inactive: [20] > 10 µM | [1] > 10 µM | [2] > 10 µM | [3] > 10 µM | [4] > 10 µM | [5] > 10 µM | [6] > 10 µM | [7] 2.72 µM | [8] > 10 µM | [9] 2.48 µM | [10] > 10 µM | [11] 4.47 µM | [12] > 10 µM | [13] > 10 µM | [14] > 10 µM | [15] > 10 µM | [16] > 10 µM | [17] > 10 µM | [18] > 10 µM | [19] > 10 µM

CON(C)c1nc(N(C)OC)nc(N(C)OC)n1
inactive: [20] > 10 µM | [1] > 10 µM | [2] > 10 µM | [3] > 10 µM | [4] > 10 µM | [5] > 10 µM | [6] > 10 µM | [7] > 10 µM | [8] > 10 µM | [9] > 10 µM | [10] > 10 µM | [11] > 10 µM | [12] > 10 µM | [13] > 10 µM | [14] > 10 µM | [15] > 10 µM | [16] > 10 µM | [17] > 10 µM | [18] > 10 µM | [19] > 10 µM

COc1nc(C#CCC(C)O)nc(OC)n1 (stereo unspecified)
inactive: [20] 30.6 µM | [1] 19.9 µM | [2] 4.89 µM | [3] 17.1 µM | [4] 29.6 µM | [5] 15.7 µM | [6] 14.9 µM | [7] 38.2 µM | [8] 7.38 µM | [10] 21.1 µM | [11] 24.3 µM | [12] 16.9 µM | [13] 11.5 µM | [14] 31.6 µM | [15] 27 µM | [16] 30.5 µM | [17] 19.1 µM | [18] 25.4 µM | [19] 26 µM
